According to article PMC5845537 (Frontiers in Pharmacology, 2018):
Where two headings read alike, the source gives them in different places.

Tests used:
[1] = tested on: Sprague-Dawley rats; assay: Rat object recognition (OR) task after subchronic PCP; format: in vivo; settings: p < 0.05
Procedure: Subchronic PCP treatment: The subPCP administration regimen used in rats was conducted as described in ([Goetghebeur and Dias, 2009]), which is a reliable method for inducing deficits in our hands. Rats in the subPCP experiments received injections of 5 mg/mL PCP or vehicle (saline) s.c. at a 1 mL/kg injection volume twice per day for 7 days. […] The mouse subPCP regimen was conducted as described in [Pedersen et al. (2014)]. Briefly, mice received vehicle or PCP (1.3 mg/mL concentration, 10 mL/kg injection volume) s.c once per day for 14 days followed by a 7-day washout prior to experimentation.
The behavioral procedures for the rat OR task were conducted as described in [du Jardin et al. (2014)]. […] OR task sessions were recorded by a digital camera situated above the open field. Exploration time for each object was recorded with a stopwatch from the videos. […]
The primary dependent measure for the OR and object placement tasks was a novel object or novel placement preference score, which were calculated from raw object investigation times using the following equation: Preference Score = ITN/(ITN + ITF)^∗100, where ITN represents the investigation time for the novel object or placement, and ITF represents the investigation for the familiar object or placement. Total exploration times from the information and test trials were analyzed for OP and OR experiments. […]

[2] = tested on: rodent 5-HT7 receptors; settings: rodent vs human; no reference given; cited from earlier work
[3] = tested on: 5-HT1B receptors; settings: 2014, cited from earlier work
[4] = tested on: rodent 5-HT1A receptors; settings: rodent vs human; no reference given; cited from earlier work
[5] = tested on: SERT; settings: cited from earlier work
[6] = tested on: 5-HT3 receptor; settings: 2014, cited from earlier work
[7] = tested on: 5-HT1A receptors; settings: 2014, cited from earlier work
[8] = 10 mg/kg 1 h s.c., full occupancy, ref Leiser et al.
[9] = subchronic dose used in the mouse OR and object placement tasks, ref Wallace et al., Waller et al., 2017

Row | Structure (SMILES) | OR performance (novel object preference score) ([1]; subPCP alone vs vehicle-treated controls) | lesser affinity at rodent 5-HT7 receptors by comparison to humans [2] | attenuation of subPCP-induced OR impairment (preference score) ([1]; subPCP-treated rats, acute 10 mg/kg 1 h s.c.) | occupancy at 5-HT1B receptors [3, 8] [%] | occupancy at 5-HT1B receptors [3, 9] | lesser affinity at rodent 5-HT1A receptors by comparison to humans [4] | occupancy at the SERT ([5]; 1 mg/kg acute dose, ref Leiser et al., 2014) | occupancy at SERT ([5]; 10 mg/kg 1 h s.c., full occupancy, ref Leiser et al., 2014) [%] | occupancy at the SERT ([5]; 0.22 g/kg subchronic dose (food), ref Waller et al., 2017) | occupancy at SERT ([5]; subchronic dose used in the mouse OR and object placement tasks, ref Wallace et al., 2014, Waller et al., 2017) | SERT occupancy ([5]; the vortioxetine doses used, ref Stenkrona et al., 2013, Leiser et al., 2014) | occupancy at the 5-HT3 receptor ([6]; 1 mg/kg acute dose, ref Leiser et al.) | occupancy at 5-HT3 receptors [6, 8] [%] | occupancy at 5-HT3 receptors [6, 9] | occupancy at 5-HT1A receptors ([7]; 10 mg/kg 1 h s.c., ref Leiser et al.) | occupancy at 5-HT1A receptors ([7]; subchronic dose used in the mouse OR and object placement tasks, expected, ref Wallace et al., Waller et al., 2017)
1 | Cl.c1ccc(C2(N3CCCCC3)CCCCC2)cc1 [PCP, 1-(1-phenylcyclohexyl)-piperidine hydrochloride] | significant impairments | – | – | – | – | – | – | – | – | – | – | – | – | – | – | –
2 | Cc1ccc(Sc2ccccc2N2CCNCC2)c(C)c1 [vortioxetine] | – | approximately 10 fold | significantly attenuated | ≥ 80 | approximately 50% | approximately 10 fold | 60–65% | ≥ 80 | approximately 50% | full occupancy | 50–90% | full occupancy | ≥ 80 | full occupancy | ≈ 40% | negligible
